Tested on: phosphorylated PKB (Ser473)
Assay: Western blot of active
Assay type: cell-based, human
Details: PANC-1, CFPAC-1 and HPAF-II cell lysates (all three cell lines); 1 μM wortmannin for 10 min prior to lysis

Compound: COC[C@H]1OC(=O)c2coc3c2[C@@]1(C)C1=C(C3=O)[C@@H]2CCC(=O)[C@@]2(C)C[C@H]1OC(C)=O [wortmannin]
- amount of phosphorylated Ser473 (pSer473) of PKB by Western blot: decreased

Reference: paper PMC4018172 (Analytical Chemistry, 2014)
